Assay results as given in PubChem BioAssay (NCI).
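In this assay, cells in 96-well plates receive the compound at five concentrations for 48 hours. Endpoints are linearly interpolated between the surrounding concentrations. TGI: concentration producing complete growth inhibition.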

Experiments:
Assay in all cases: NCI-60 cell line screen, 48 h
SW-620 colon = system: SW-620 colon
BT-549 breast = system: BT-549 breast
MCF7 breast = system: MCF7 breast
SK-OV-3 ovarian = system: SK-OV-3 ovarian
DU-145 prostate = system: DU-145 prostate
OVCAR-8 ovarian = system: OVCAR-8 ovarian
MOLT-4 leukemia = system: MOLT-4 leukemia
HCT-15 colon = system: HCT-15 colon
786-0 renal = system: 786-0 renal
NCI-H460 lung = system: NCI-H460 lung

Compound	TGI (SW-620 colon)	TGI (BT-549 breast)	TGI (MCF7 breast)	TGI (SK-OV-3 ovarian)	TGI (DU-145 prostate)	TGI (OVCAR-8 ovarian)	TGI (MOLT-4 leukemia)	TGI (HCT-15 colon)	TGI (786-0 renal)	TGI (NCI-H460 lung)
O=c1[nH]c2nc3ccccc3c(=O)n2/c1=C/c1ccccc1	47.6 µM	53.8 µM	> 100 µM	> 100 µM	> 100 µM	> 100 µM	> 100 µM	> 100 µM	96.6 µM	
CCC1C(NC(=O)OC)C(=O)N1[C@@H](C)c1ccccc1 (some centres undefined)	> 100 µM	> 100 µM	> 100 µM	> 100 µM	> 100 µM	> 100 µM	> 100 µM	> 100 µM	> 100 µM	> 100 µM
CN(C)c1ccc(N=C2N=C(Nc3ccccc3)C(=Nc3ccccc3)S2)cc1	> 100 µM		> 100 µM	> 100 µM	> 100 µM	> 100 µM	> 100 µM	> 100 µM	> 100 µM	> 100 µM
Fc1cc2nc3n(c2cc1F)C(c1c(F)cccc1F)SC3 (centres undefined)	> 100 µM	> 100 µM	> 100 µM	> 100 µM	> 100 µM	> 100 µM	> 100 µM	> 100 µM	80.6 µM	> 100 µM
O=C1N[C@H]2C(=O)c3c(Br)sc(Br)c3[C@H]2O1	4.76 µM	28.3 µM	25.4 µM	34.7 µM	28.9 µM	13 µM	5.25 µM	4 µM	24.1 µM	35 µM
O=S(Cc1ccccc1)c1ccccc1Cn1cccc1 (centres undefined)	> 100 µM	> 100 µM	> 100 µM	> 100 µM	> 100 µM			> 100 µM	> 100 µM	> 100 µM
COc1cc(C2c3cc4c(cc3OC(NNC(N)=S)C2C)OCO4)cc(OC)c1OC (centres undefined)	> 100 µM	62.3 µM	> 100 µM	> 100 µM	> 100 µM	> 55.1 µM		> 100 µM	> 100 µM	> 100 µM
COC(=O)C1(Cc2ccccc2)Cc2ccccc2C1O (centres undefined)	> 100 µM	> 100 µM	> 100 µM	> 100 µM	> 100 µM	> 100 µM	> 100 µM	> 100 µM	> 100 µM	> 100 µM
O=C(N/C(=C\c1ccccc1)c1nc2ccccc2c(=O)o1)c1ccccc1	> 100 µM	66.8 µM	> 100 µM	> 100 µM	> 100 µM	> 100 µM	> 100 µM	> 100 µM	> 100 µM	> 100 µM
S=C(NCCc1ccccn1)N/N=C(\c1ccccc1)c1ccccn1	> 100 µM	39.3 µM	> 100 µM	> 66.2 µM	> 48.6 µM	17.4 µM	> 78.6 µM	> 86.5 µM	> 56.8 µM	> 100 µM
CCS1=C2C(=O)CC(C)(C)CC2=Nc2ccccc21 (centres undefined)	> 100 µM	> 100 µM	> 100 µM	> 100 µM	> 100 µM	> 100 µM	> 100 µM	> 100 µM	> 100 µM	> 100 µM
Cc1cc(C)c2c(=O)n(CC(O)CN(Cc3ccccc3)CC(O)Cn3sc4nc(C)cc(C)c4c3=O)sc2n1 (centres undefined)	> 100 µM	38.3 µM	32.1 µM	73.6 µM	31.7 µM	34.5 µM	> 100 µM	34.4 µM	27.7 µM	39.3 µM
CC(NNC(=O)c1ccncc1)c1ccccc1 (centres undefined)	> 100 µM	> 100 µM	> 100 µM	> 100 µM	> 100 µM	> 100 µM	> 100 µM	> 100 µM	> 100 µM	
Cn1cc(NC(=O)Nc2cc(C(=O)Nc3cc(C(=O)Nc4ccc5cc(S(=O)(=O)O)cc(S(=O)(=O)O)c5c4)n(C)c3)n(C)c2)cc1C(=O)Nc1cc(C(=O)Nc2ccc3cc(S(=O)(=O)O)cc(S(=O)(=O)O)c3c2)n(C)c1	> 100 µM	> 100 µM	> 100 µM	> 100 µM	> 100 µM	> 100 µM	> 100 µM	> 100 µM	> 100 µM	> 100 µM
Cc1n[nH]c(=O)n1C1CC1	> 100 µM	> 100 µM	> 100 µM	> 100 µM	> 100 µM	> 100 µM	> 100 µM	> 100 µM	> 100 µM	> 100 µM
O=C(C[C@@H]1CCCN2CCCC[C@H]12)N1c2ccccc2Sc2ccc(Cl)cc21	26.8 µM	28 µM	35.5 µM		28.2 µM	37.2 µM	30 µM	30.4 µM	23.1 µM	28.3 µM
COc1cc(/C=C2\CCC(C)C3=C2N=c2s/c(=C/c4ccc(Cl)cc4)c(=O)n2C3c2cc(OC)c(OC)c(OC)c2)cc(OC)c1OC (centres undefined)	> 100 µM		> 100 µM	> 100 µM	> 100 µM	> 100 µM	> 100 µM	> 100 µM	> 100 µM	
C/C(=C/CC[C@](C)(OC1OC(CO)C(O)C(O)C1O)[C@H]1CC[C@]2(C)[C@@H]1CC[C@@H]1[C@@]3(C)CC[C@H](O)C(C)(C)[C@@H]3C[C@H](O)[C@]12CO)CO (some centres undefined)	> 100 µM	> 100 µM	> 100 µM	> 100 µM	> 100 µM	> 100 µM	> 100 µM	> 100 µM	> 100 µM	> 100 µM
CC(=O)Nc1ccc(S(=O)(=O)c2nnc(NC(C)=O)s2)cc1	> 100 µM	> 100 µM	> 100 µM	> 100 µM	> 100 µM	> 100 µM	> 100 µM	> 100 µM	> 100 µM	> 100 µM
NC(=O)N/N=C\CC(O)(C(F)(F)Cl)C(F)(F)Cl	> 10 µM		> 10 µM	> 10 µM	> 10 µM	> 10 µM	> 10 µM	> 10 µM	> 10 µM	> 10 µM
COc1cc(/C=N/NC(=O)c2c(Cl)c(Cl)c(Cl)c(Cl)c2-c2nc3ccc(C(=O)c4ccccc4)cc3[nH]2)ccc1O	> 100 µM	> 100 µM	> 100 µM	> 100 µM	> 100 µM	> 100 µM	64.1 µM	> 100 µM	> 100 µM	
CCOC(=O)c1cc(=O)c2cccc3c2n1CCS3	> 100 µM	> 100 µM	> 100 µM	> 100 µM	> 100 µM	> 100 µM	> 100 µM	> 100 µM	> 100 µM	> 100 µM

Compound	TGI (SW-620 colon)	TGI (BT-549 breast)	TGI (MCF7 breast)	TGI (SK-OV-3 ovarian)	TGI (DU-145 prostate)	TGI (OVCAR-8 ovarian)	TGI (MOLT-4 leukemia)	TGI (HCT-15 colon)	TGI (786-0 renal)	TGI (NCI-H460 lung)
CCOC(=O)C1CCCc2sc(N)c(C#N)c21 (centres undefined)	> 100 µM	> 100 µM	> 100 µM			> 100 µM	> 100 µM	> 100 µM	> 100 µM	> 100 µM
COc1ccccc1NC1Oc2cc3c(cc2C(c2cc(OC)c(OC)c(OC)c2)C1C)OCO3 (centres undefined)	> 100 µM	> 70.8 µM	> 100 µM	> 31.1 µM	> 100 µM	> 64.2 µM	33 µM	> 100 µM	36.8 µM	> 100 µM
N#Cc1ccc(C2ON=C(c3ccccc3)N2C23CC4CC(CC(C4)C2)C3)cc1 (centres undefined)	> 10 µM	> 10 µM	> 10 µM	> 10 µM	> 10 µM	> 10 µM	> 10 µM	> 10 µM	> 10 µM	> 10 µM
C/C(=N\O)c1ccc(OCc2cc(C(F)(F)F)cc(C(F)(F)F)c2)cc1	> 100 µM		> 100 µM	> 100 µM	> 100 µM	> 100 µM	68.5 µM	> 100 µM	> 100 µM	69.1 µM
N#CC(O)CCOCc1ccccc1 (centres undefined)	> 100 µM	> 100 µM	> 100 µM	> 100 µM	> 100 µM	> 100 µM	14.8 µM	> 100 µM	> 100 µM	> 100 µM
CCOC(=O)C(=[N+]=[N-])C(=O)CSC#N	> 100 µM	> 100 µM	> 100 µM	> 100 µM	> 100 µM	> 100 µM	> 100 µM	> 100 µM	> 100 µM	
COC(=O)CN(CC(=O)NCCNC(=O)OC(C)(C)C)C1CCCCC1N(CC(=O)OC)CC(=O)OC (centres undefined)	> 100 µM	> 100 µM	> 100 µM	> 100 µM	> 100 µM	> 100 µM	> 100 µM	> 100 µM	> 100 µM	> 100 µM
Cc1cccc(N=Nc2c(C)nn(C(=O)CC(=O)Nc3ccc(Cl)cc3)c2C)c1	> 100 µM	> 100 µM	> 100 µM	> 100 µM	> 100 µM	> 100 µM	> 100 µM	> 100 µM	> 100 µM	> 100 µM
Cc1csc2nc(-c3cccc([N+](=O)[O-])c3)c(/C=N/N=C(N)N)n12	2.98 µM	2.49 µM		3.33 µM	4.28 µM	3.2 µM		3.71 µM	2.91 µM	9.61 µM
NC1CCN(c2nc3ccccc3c3c2CCCC3)CC1	12.7 µM	25.9 µM	8.6 µM	27.1 µM	24.3 µM	32.8 µM	9.36 µM	17.7 µM	13.3 µM	13.5 µM
Cc1nc2ccc(Cl)cc2c2c1CCN2c1ccc(F)cc1	> 100 µM		59.1 µM	> 100 µM	> 100 µM	> 100 µM	> 100 µM	> 100 µM	> 100 µM	> 100 µM
Cn1c(-c2ccccc2)cc(-c2ccc3c(c2)OCO3)c1-c1ccsc1	> 100 µM	> 100 µM	> 100 µM	> 100 µM	> 100 µM	> 100 µM	> 100 µM	> 100 µM	> 100 µM	> 100 µM
Oc1ccc(Br)cc1C=Nc1c(NC2CCCCC2)oc2ccc(Br)cc12	> 100 µM	90.9 µM	83.2 µM	> 100 µM	> 100 µM	> 100 µM		> 100 µM	> 100 µM	> 100 µM
O=C(NCCCCCCCCNC(=O)Nc1cccc2ccccc12)Nc1cccc2ccccc12	47.3 µM	> 100 µM	> 100 µM		> 100 µM	> 100 µM	> 100 µM	> 100 µM	24.9 µM	13.4 µM
COc1cccc([C@@H]2C/C(=N\NC(=O)C(=O)N[C@@H](C)c3ccccc3)c3ccccc3N2)c1	> 100 µM		> 100 µM	> 100 µM	> 100 µM		34.8 µM	> 100 µM	> 100 µM	
Cc1ccc(S(=O)(=O)N(CCN)c2cc3c4c(c2)Oc2cccc5c2C4c2c(cccc2O3)O5)cc1	> 100 µM	> 100 µM	47.8 µM	> 100 µM		23.2 µM	> 100 µM	> 100 µM	30.2 µM	> 100 µM
O=c1c2ccccc2n2c(-c3ccccc3O)nnc2n1-c1ccccc1	> 100 µM		> 100 µM	> 100 µM	> 100 µM	> 100 µM	> 100 µM	> 100 µM	> 100 µM	> 100 µM
NC(=O)c1ncn(C2C=CC(CP(=O)(O)O)C2)c1N (centres undefined)	> 100 µM		> 100 µM	> 100 µM	> 100 µM	> 100 µM	> 100 µM	> 100 µM	> 100 µM	> 100 µM
O=C(O)CCC(NC(=O)c1ccc(Oc2nc3ccccc3nc2C(=O)O)cc1)C(=O)O (centres undefined)	> 100 µM	> 100 µM		> 100 µM	> 100 µM	> 100 µM	> 100 µM	> 100 µM	> 100 µM	> 100 µM
CC(C(=O)NCNC(=O)c1ccccc1)C(=O)Nc1ccccc1 (centres undefined)	> 100 µM	> 100 µM	> 100 µM	> 100 µM	> 100 µM	> 100 µM		> 100 µM	> 100 µM	> 100 µM
COc1c(Sc2c(SCSc3cnc4ccccc4c3Sc3cnc4ccccc4c3OC)cnc3ccccc23)cnc2ccccc12	> 100 µM	> 100 µM			> 100 µM	> 100 µM	> 100 µM	> 100 µM	> 100 µM	> 100 µM
O=C1c2ccccc2CC12Cc1cc3c(cc1C2)CCC3	> 100 µM		> 100 µM	> 100 µM	> 100 µM	> 100 µM	82.1 µM	> 100 µM	> 100 µM	> 100 µM
